Data published in PMC4668384 (Scientific Reports, 2015).
In brackets after ≈: the same amount, converted by molar mass. Where two headings read alike, the source gives them in different places.

Columns and labels:
[1] = test system: VvCYP51 gene expression in isolate FJ4-1b; assay: Induction of VvCYP51 gene expression by tebuconazole (real-time PCR); settings: 0.1 μg/ml tebuconazole for 6 h, versus untreated control
Description: The wild type isolates, mutant, and transformants were grown in 50 ml of PSB at 28 °C for 7 days on a 160 rpm orbital shaker. Total RNA was extracted from mycelia using the TRIzole reagent (Aidlab, Beijing, China), then digested with DNase I nuclease (Takara, Dalian, China) to remove DNA contamination. The cDNA was synthesized using a RevertAid First Strand cDNA Synthesis Kit employing the oligo(dT)18 primer (Thermo Fisher Scientific, Waltham, MA). The expression of the VvCYP51 gene was evaluated by real-time PCR using the primer pair RealCYP51-F/RealCYP51-R. Expression was normalized with the α-tubulin gene. Relative expression was calculated using the comparative Ct (2^−ΔΔCt) method[51]. […] Real-time PCR amplifications of VvCYP51 were performed in a CFX96 Real-Time PCR Detection System (Bio-Rad Laboratories Inc., Hercules, CA) using SYBR Green I fluorescent dye. Amplifications were conducted in a 20-μl volume containing 10 μl of SYBR qPCR Mix (Aidlab, Beijing, China), 1 μl of RT product and 0.2 μM of each primer. All samples were in triplicates with the following profile: an initial preheat at 95 °C for 2 min, followed by 40 cycles at 95 °C for 20 s, 60 °C for 20 s and 72 °C for 20 s. The entire experiment starting with RNA extractions was repeated four times.

[2] = test system: V. virens pB-Vv51wt transformants (P-F); assay: Tebuconazole sensitivity, mycelial growth on amended PSA, pB-Vv51wt transformants; assay type: cell-based, Villosiclava virens; settings: Ustilaginoidea virens
[3] = test system: V. virens isolate FJ4-1b (wild type); assay: Tebuconazole sensitivity, mycelial growth on amended PSA, wild type isolate; assay type: cell-based, Villosiclava virens; settings: Ustilaginoidea virens, 336 h, 28 °C, 14 days
Description: Mycelial plugs (6 mm) were transferred in triplicates from the margins of 14-day old colonies to 9 cm petri dishes containing nonamended or tebuconazole-amended PSA. Dishes were incubated at 28 °C for 14 days in darkness. The average colony diameter was measured in two perpendicular directions, and the EC50 value was determined by regressing percentage growth inhibition against the log of fungicide concentration.

[4] = target: T1, truncated wild type VvCYP51 (Ustilaginoidea virens (Villosiclava virens), UniProt X2GGV8); assay: UV-visible spectral binding assay, truncated wild type protein
T1 sequence (X2GGV8 29-528): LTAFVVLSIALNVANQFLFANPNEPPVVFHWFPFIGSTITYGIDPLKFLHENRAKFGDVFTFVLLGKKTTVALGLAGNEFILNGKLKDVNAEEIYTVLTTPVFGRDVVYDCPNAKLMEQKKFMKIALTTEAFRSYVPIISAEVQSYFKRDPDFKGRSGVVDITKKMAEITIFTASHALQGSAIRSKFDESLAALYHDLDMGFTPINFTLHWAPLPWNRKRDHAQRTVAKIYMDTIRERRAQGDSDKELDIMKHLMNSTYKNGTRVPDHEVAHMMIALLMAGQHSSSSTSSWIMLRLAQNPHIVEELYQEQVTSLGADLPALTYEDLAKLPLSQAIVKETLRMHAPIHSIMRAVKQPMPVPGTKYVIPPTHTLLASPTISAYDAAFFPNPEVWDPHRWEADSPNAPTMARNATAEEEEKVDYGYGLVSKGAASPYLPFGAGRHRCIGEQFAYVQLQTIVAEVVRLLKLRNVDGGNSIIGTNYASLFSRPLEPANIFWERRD

In the case of `CC(C)(C)C(O)(CCc1ccc(Cl)cc1)Cn1cncn1` (stereo not drawn) [tebuconazole], the “increase of expression of VvCYP51 gene” value [1] is reported as 29.94 fold, the EC50 ([2]; 336 h, read-out: EC50 value, transformant P-F 4, mycelial growth on PSA, 28 °C, 14 days) is reported as 0.11 mg/L (≈ 0.357 µM) and the EC50 ([2]; 336 h, read-out: EC50 value, transformant P-F 7, mycelial growth on PSA, 28 °C, 14 days) is reported as 0.24 mg/L (≈ 0.78 µM). The EC50 ([2]; 336 h, read-out: EC50 value, transformant P-F 8, mycelial growth on PSA, 28 °C, 14 days) was 0.13 mg/L (≈ 0.422 µM), the EC50 ([2]; 336 h, read-out: EC50 value, transformant P-F 9, mycelial growth on PSA, 28 °C, 14 days) was 0.15 mg/L (≈ 0.487 µM) and the EC50 ([2]; 336 h, read-out: EC50 value, transformant P-F 10, mycelial growth on PSA, 28 °C, 14 days) was 0.12 mg/L (≈ 0.39 µM). It also gave an EC50 ([2]; 336 h, read-out: EC50 value, transformant P-F 13, mycelial growth on PSA, 28 °C, 14 days) of 0.11 mg/L (≈ 0.357 µM), an EC50 ([2]; 336 h, read-out: EC50 value, transformant P-F 14, mycelial growth on PSA, 28 °C, 14 days) of 0.28 mg/L (≈ 0.91 µM) and an EC50 ([2]; 336 h, read-out: EC50 value, transformant P-F 15, mycelial growth on PSA, 28 °C, 14 days) of 0.13 mg/L (≈ 0.422 µM). The EC50 ([2]; 336 h, read-out: EC50 value, transformant P-F 16, mycelial growth on PSA, 28 °C, 14 days) was 0.13 mg/L (≈ 0.422 µM), the EC50 ([2]; 336 h, read-out: EC50 value, transformant P-F 17, mycelial growth on PSA, 28 °C, 14 days) was 0.2 mg/L (≈ 0.65 µM) and the EC50 ([2]; 336 h, read-out: EC50 value, transformant P-F 20, mycelial growth on PSA, 28 °C, 14 days) was 0.27 mg/L (≈ 0.877 µM). For the same molecule, the EC50 ([2]; 336 h, read-out: EC50 value, transformant P-F 22, mycelial growth on PSA, 28 °C, 14 days) was 0.15 mg/L (≈ 0.487 µM), the EC50 ([2]; 336 h, read-out: EC50 value, transformant P-F 23, mycelial growth on PSA, 28 °C, 14 days) was 0.2 mg/L (≈ 0.65 µM) and the EC50 ([2]; 336 h, read-out: EC50 value, transformant P-F 25, mycelial growth on PSA, 28 °C, 14 days) was 0.15 mg/L (≈ 0.487 µM). It also gave an EC50 ([2]; 336 h, read-out: EC50 value, transformant P-F 26, mycelial growth on PSA, 28 °C, 14 days) of 0.18 mg/L (≈ 0.585 µM), an EC50 ([2]; 336 h, read-out: EC50 value, transformant P-F 28, mycelial growth on PSA, 28 °C, 14 days) of 0.13 mg/L (≈ 0.422 µM) and an EC50 ([2]; 336 h, read-out: EC50 value, transformant P-F 29, mycelial growth on PSA, 28 °C, 14 days) of 0.26 mg/L (≈ 0.845 µM). It also gave an EC50 ([2]; 336 h, read-out: EC50 value, transformant P-F 31, mycelial growth on PSA, 28 °C, 14 days) of 0.25 mg/L (≈ 0.812 µM), an EC50 ([2]; 336 h, read-out: EC50 value, transformant P-F 32, mycelial growth on PSA, 28 °C, 14 days) of 0.32 mg/L (≈ 1.04 µM) and an EC50 ([2]; 336 h, read-out: EC50 value, transformant P-F 33, mycelial growth on PSA, 28 °C, 14 days) of 0.12 mg/L (≈ 0.39 µM). The EC50 ([2]; 336 h, read-out: EC50 value, transformant P-F 34, mycelial growth on PSA, 28 °C, 14 days) was 0.15 mg/L (≈ 0.487 µM), the EC50 ([2]; 336 h, read-out: EC50 value, transformant P-F 36, mycelial growth on PSA, 28 °C, 14 days) was 0.22 mg/L (≈ 0.715 µM) and the EC50 ([2]; 336 h, read-out: EC50 value, transformant P-F 37, mycelial growth on PSA, 28 °C, 14 days) was 0.11 mg/L (≈ 0.357 µM). The EC50 ([2]; 336 h, read-out: EC50 value, transformant P-F 38, mycelial growth on PSA, 28 °C, 14 days) was 0.31 mg/L (≈ 1.01 µM), the EC50 ([2]; 336 h, read-out: EC50 value, transformant P-F 39, mycelial growth on PSA, 28 °C, 14 days) was 0.13 mg/L (≈ 0.422 µM) and the EC50 ([2]; 336 h, read-out: EC50 value, transformant P-F 40, mycelial growth on PSA, 28 °C, 14 days) was 0.21 mg/L (≈ 0.682 µM). The EC50 ([2]; read-out: EC50 values (range), range over the 26 pB-Vv51wt transformants) was 0.11 to 0.32 mg/L (≈ 0.357 to 1.04 µM), the EC50 [3] was 0.04 mg/L (≈ 0.13 µM) and the Kd ([4]; bound for the three different truncated wild type VvCYP51 proteins, read-out: Kd values) was < 0.04 µM. It also gave a Kd ([4]; wild type VvCYP51, −28aa N-terminal truncation, read-out: Kd) of 0.037 ± 0.0027 µM, a Kd ([4]; wild type VvCYP51, −42aa N-terminal truncation, read-out: Kd) of 0.034 ± 0.0023 µM and a Kd ([4]; wild type VvCYP51, −74aa N-terminal truncation, read-out: Kd) of 0.037 ± 0.0025 µM.
